Experimental data published in patent US20150346214A1, “DETECTION OF MEMBRANE PROTEINS” (priority 2012, published 2015).
“Also recorded” adds a separate entry of the source.

Assays:
[1] = target: T1, mechanosensitive channel of large conductance (MscL) (Mycobacterium tuberculosis, UniProt P9WJN5); assay: Phospholipid binding to MscL resolved by native MS / IM-MS in C8E4; conditions: optimised P:L:D ratio of Table 2
T1 sequence (P9WJN5 1-151): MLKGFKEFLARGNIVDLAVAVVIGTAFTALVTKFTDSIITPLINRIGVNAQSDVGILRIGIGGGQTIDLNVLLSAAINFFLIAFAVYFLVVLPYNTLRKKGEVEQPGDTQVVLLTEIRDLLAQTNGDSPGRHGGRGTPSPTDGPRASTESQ

ammonia channel (AmtB) [2] = target: T2, ammonia channel (AmtB) (Escherichia coli, UniProt P69681); assay: Phospholipid binding to AmtB resolved by native MS / IM-MS in C8E4; set-up: species or system E. coli; conditions: for # Bound (number of resolvable phospholipids bound): AmtB in C8E4, optimised P:L:D ratio of Table 2; for extent of phospholipid binding to AmtB: in words, co-transport into the gas phase
Aquaporin Z (AQPZ) [3] = target: T3, Aquaporin Z (AQPZ) (Escherichia coli, UniProt P60844); assay: Phospholipid binding to AQPZ resolved by native MS / IM-MS in C8E4; set-up: species or system E. coli; conditions: for # Bound (number of resolvable phospholipids bound): AQPZ in C8E4, optimised P:L:D ratio of Table 2
T3 sequence (P60844 whole entry): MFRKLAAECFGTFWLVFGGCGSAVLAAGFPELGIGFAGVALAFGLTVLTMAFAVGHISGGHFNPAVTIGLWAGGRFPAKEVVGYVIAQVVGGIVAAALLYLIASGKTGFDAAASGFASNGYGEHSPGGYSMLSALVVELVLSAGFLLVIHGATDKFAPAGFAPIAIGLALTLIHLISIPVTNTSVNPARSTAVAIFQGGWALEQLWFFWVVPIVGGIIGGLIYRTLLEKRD

Aquaporin Z (AQPZ) [4] = target: T3, Aquaporin Z (AQPZ); assay: Mass spectra and ion mobility MS of AQPZ complex in three detergents (Example 2); set-up: species or system E. coli; conditions: for experimental collisional cross section (CCS) / folded state: AQPZ, IM-MS, CIU fingerprints, C8E4 at ELAB <1500; for species in mass spectrum (expected oligomer versus dissociation products): tetrameric AQPZ, sample cone 10 volts, collision voltage 200 volts
Description: (§1) AmtB-GFP and AQPZ-GFP were extracted from purified membranes in 2% OG in Buffer B and incubated overnight at 4° C. Extracted membrane proteins were clarified by centrifugation at 20,000 g for 25 minutes at 4° C. The clarified supernatant was filtered before loading onto a 5 mL HisTrap-HP column (GE Healthcare, Piscataway, NJ) equilibrated in Buffer E (200 mM sodium chloride, 10% glycerol, 20 mM Imidazole, 0.025% DDM, and 50 mM TRIS, pH 7.4 at room temperature). After the clarified supernatant was loaded, the column was initially washed with 40-50 mL of Buffer E containing 1% OG instead of DDM followed by several column volumes of Buffer E until a steady baseline was reached. Protein was eluted with a linear gradient to 100% in two column volumes of Buffer F (100 mM sodium chloride, 10% glycerol, 500 mM Imidazole, 0.025% DDM, and 50 mM TRIS, pH 7.4 at room temperature). Peak fractions were pooled, supplemented with 5mM BME and His-tagged TEV protease, arid dialyzed against Buffer G (150 mM sodium chloride, 10% glycerol, 20 mM Imidazole, 0.02% DDM, and 50 mM TRIS, pH 7.4 at room temperature) overnight at 4° C. After overnight incubation at 4° C., samples were filtered and passed back over a 5 mL. HisTrap-HP column equilibrated in Buffer E. Flow through containing the untagged membrane protein was collected and concentrated using a 100 kDa MWCO concentrator. Concentrated protein was flash frozen in liquid nitrogen and stored at -80° C.
(§2) Frozen samples were thawed on ice prior to detergent exchange over gel filtration. Samples were injected on a Superdex 200 10/300 (GE Healthcare) equilibrated in Buffer H (130 mM sodium chloride, 10% glycerol, and 50 mM TRIS, pH 7.4 at room temperature) supplemented with 0.5% of C8E4, 0.4% of NG, or 0.02% of DDM. Peak fractions were concentrated using a 100 kDa MWCO concentrator. Concentrated protein was either used directly or flash-frozen in liquid nitrogen and stored at −80° C. Purified membrane proteins were buffer exchanged into MS Buffer (2× CMC detergent of interest and 200 mM Ammonium Acetate, pH 8.0 with Ammonium Hydroxide) using a centrifugal buffer exchange device (Micro Bio-Spin 6, Bio-Rad).
(§3) Buffer exchanged protein was analysed on a quadrupole ion mobility time-of-flight mass spectrometer (Synapt HDMS, Waters Corp.) modified with an 18 cm drift cell with radial RF confinement (RF amplitude 200 V) and a linear voltage gradient along the axis of ion transmission such that collision cross section (CCS) values could be determined directly.
(§4) Mass spectra were acquired with instrument set to 10 volts for sample cone and 200 volts for collision voltage.
(§5) The preservation of native structure is most likely due to the charge reducing behaviour of C8E4, as well as other polyoxyalkylene glycol detergents, which results in a two to five fold reduction in activation energy. In addition, under ELAB values slightly greater than 1500, the CCS value increases consistent with partial unfolding. More importantly, gas-phase unfolding can be observed for these membrane complexes at ELAB values of 1750 to 2250. These gas-phase unfolding transitions can be altered in the presence of a drug molecule that stabilises protein structure, thereby enabling the detection of drug molecules that stabilise protein structure.

ammonium channel (AmtB) = ammonium channel (AmtB) (Escherichia coli, UniProt P69681); assay: Mass spectra and ion mobility MS of AmtB complex in three detergents (Example 2); set-up: species or system E. coli; conditions: for experimental collisional cross section (CCS) / folded state: AmtB, IM-MS, CIU fingerprints, C8E4 at ELAB <1500; for species in mass spectrum (expected oligomer versus dissociation products): trimeric AmtB, sample cone 10 volts, collision voltage 200 volts
Description: as §1, §2, §3, §4, §5

[5] = target: E. coli ammonium channel C-terminally fused to green fluorescent protein (AmtB-GFP) (Escherichia coli, UniProt P69681, S65T); conditions: AmtB-GFP trimer in MS buffer with 2x CMC of the detergent; charge state envelopes modelled with a Gaussian
Description: The activation energy required to achieve resolved peaks of E. coli ammonium channel C-terminally fused to green fluorescent protein (AmtB-GFP) was assessed for a variety of non-ionic detergents.
AmtB-GFP was extracted from purified membranes (described above) with 1-2% (w/v) of the detergent of interest in Buffer B and incubated for one to three hours at room temperature or overnight at 4° C. Insoluble material was pelleted by centrifugation at 20,000 g for 25 minutes at 4° C. The clarified supernatant was loaded onto small Ni-NTA agarose (Qiagen) drip columns (Bio-spin Chromatography columns, Bio-Rad) and washed with several column volumes of Buffer C (200 mM sodium chloride, 20 mM Imidazole, 5 mM BME, 2× CMC detergent of interest, and 50 mM TRIS, pH 8.0 at room temperature). AmtB-GFP was eluted with two column volumes of Buffer D (100 mM sodium chloride, 250 mM Imidazole, 5 mM BME, 2× CMC detergent of interest, and 50 mM TRIS, pH 8.0 at room temperature). Eluted protein was concentrated using a 100 kDa MWCO concentrator and buffer exchanged into MS Buffer (2× CMC detergent of interest and 200 mM Ammonium Acetate, pH 8.0 with Ammonium Hydroxide) using a centrifugal buffer exchange device (Micro Bio-Spin 6, Bio-Rad).
Buffer exchanged protein was analysed on a Q-TOF 2 mass spectrometer (Micromass, Manchester, UK) with a Z-spray source including modifications for protein complexes after introduction of complexes from gold-coated nanoflow capillaries.

ammonia channel (AmtB) [6] = target: T2, ammonia channel (AmtB); assay: Gas-phase (collision-induced) unfolding IM-MS: stabilisation of AmtB by bound phospholipid; format: binding, E. coli; conditions: +15 charge state, versus apo form
Description: IM-MS was used to resolve individual phospholipid-bound states of membrane proteins, in folded conformations, devoid of the complication of the lipid bilayer. Bound phospholipids were then ranked based on their ability to prevent gas-phase unfolding. Combining the IM-MS data for the three protein complexes with molecular dynamic (MD) simulations, probable lipid binding sites were then identified.
Ion mobility measurements were performed on a modified Synapt G1 HDMS instrument with the travelling-wave on mobility cell replaced by an 18-cm drift cell with radial RF on confinement and a linear voltage gradient to direct ions along the axis of transmission to the time-of-flight (TOF) mass analyser. Ion mobility mass spectrometer was typically set to a source pressure of 5-7 mBar, capillary voltage of 1.4-1.7 kV, capillary nanoflow of 0.03-0.2 mBar and argon as collision gas with flow rate set to 5-8 mL/min (˜6.6-6.7 e-2 mBar). Collision voltage ranged from 2-240 V with measurements taken at 5 V and 2 V steps for monitoring gas-phase unfolding of membrane and soluble protein complexes, respectively. The sample and extraction cone and trap bias voltages, quadrupole profile, and collision gas pressure were optimized for maximal ion intensity of the target membrane protein complex. Helium was the drift cell gas and set to a pressure of ˜1.6-1.8 Torr (40 ml/min flow rate). Pusher time, pulse width and TDC inhibit were set to 180, 7 and 7 μs, respectively. The ion guide/source (300 ms^−1, 10 V), trap (300 ms^−1, 0.2 V) and transfer (100 ms^−1, 10 V) travelling wave velocities and wave heights were kept constant. The mobility release time was set at 200 μs with a trap voltage of 30 V and extract voltage of 10 V. Pressure and temperature of the ion mobility cell was measured directly. Ion drift time (td) was determined as described in Bush et al (Analytical Chemistry, 2010, 82, 9557-.9565).
Ion mobility data were imported using a custom script provided by Waters at an m/z resolution of four in drift data and one in mass spectra for fitting. Mass spectra were smoothed and theoretical mass spectra were fitted as outlined above. A standardized integration window was employed for extracting arrival time distributions (ATD) using a resolution (R=[…]) of 1000 and a height cut-off of 25% for the modelled Gaussian to the respective m/z peak. […]
To extract quantitative values for the effects of phospholipid binding on unfolding pathways, an established equilibrium unfolding model, used extensively in solution studies involving chemical denaturation, was applied. […] By comparing the apo form of the protein with lipid bound states, the average stabilisation was calculated by fitting the unfolding pathway for the most abundant charge state, identifying four distinct intermediate states. […]

## 1-palrnitoyl-2-oleoyl-sn-glycero-3-phosphocholine (16:0-18:1) [PC]
[1]
  # Bound (number of resolvable phospholipids bound): 3
Ammonia channel (AmtB) [2]
  # Bound (number of resolvable phospholipids bound): 3
Aquaporin Z (AQPZ) [3]
  # Bound (number of resolvable phospholipids bound): 3
Aquaporin Z (AQPZ) [3]; AQPZ tetramer, mass spectra and ion mobility (FIG. 9)
  bound phospholipid molecules: up to four
Aquaporin Z (AQPZ) [3]; AQPZ, collision voltage 130 V (FIG. 6a)
  bound phospholipid molecules resolved: one to six

## CCCCCCCCOCCOCCOCCOCCO [C8E4, tetraethylene glycol monooctyl ether]
Aquaporin Z (AQPZ) [4]
  experimental collisional cross section (CCS) / folded state: consistent with calculated CCS values from their respective crystal structure
  species in mass spectrum (expected oligomer versus dissociation products): no observable dissociation products
Ammonium channel (AmtB)
  experimental collisional cross section (CCS) / folded state: consistent with calculated CCS values from their respective crystal structure
  species in mass spectrum (expected oligomer versus dissociation products): no observable dissociation products
[5]
  Zavg (mean charge state): 21.3

## CCCCCCCCCCCCO[C@@H]1O[C@H](CO)[C@@H](O[C@H]2O[C@H](CO)[C@@H](O)[C@H](O)[C@H]2O)[C@H](O)[C@H]1O [DDM, n-Dodecyl-β-D-maltoside]
Aquaporin Z (AQPZ) [4]
  experimental collisional cross section (CCS) / folded state: all unfolded CCS values
  species in mass spectrum (expected oligomer versus dissociation products): mainly dissociation products
Ammonium channel (AmtB)
  experimental collisional cross section (CCS) / folded state: all unfolded CCS values
  species in mass spectrum (expected oligomer versus dissociation products): mainly dissociation products
[5]
  Zavg (mean charge state): 30.4

## CCCCCCCCCO[C@@H]1O[C@H](CO)[C@@H](O)[C@H](O)[C@H]1O [NG, n-Nonyl-β-D-glucopyranoside]
Aquaporin Z (AQPZ) [4]
  experimental collisional cross section (CCS) / folded state: the complex is unfolded
  species in mass spectrum (expected oligomer versus dissociation products): mainly dissociation products
Ammonium channel (AmtB)
  experimental collisional cross section (CCS) / folded state: no CCS could be observed indicating native structure
  species in mass spectrum (expected oligomer versus dissociation products): mainly dissociation products
[5]
  Zavg (mean charge state): 30.4

## CCCCCCCC/C=C\CCCCCCCC(=O)O[C@H](COC(=O)CCCCCCCCCCCCCCC)COP(=O)(O)O [PA, 1-palrnitoyl-2-oleoyl-sn-glycero-3-phosphate (16:0-18:1)]
[1]
  # Bound (number of resolvable phospholipids bound): 1
Ammonia channel (AmtB) [2]
  # Bound (number of resolvable phospholipids bound): 3
  extent of phospholipid binding to AmtB: extensive
Aquaporin Z (AQPZ) [3]
  # Bound (number of resolvable phospholipids bound): 2
Ammonia channel (AmtB) [6]
  average stabilisation of AmtB by bound phospholipid (resistance to gas-phase unfolding): not correlated with significant stabilisation

## CCCCCCCC/C=C\CCCCCCCC(=O)O[C@H](COC(=O)CCCCCCCCCCCCCCC)COP(=O)(O)OC[C@H](N)C(=O)O [PS, 1-palmitoyl-2-oleoyl-sn-glycero-3-phospho-L-serine (16:0-18:1)]
[1]
  # Bound (number of resolvable phospholipids bound): 2
Ammonia channel (AmtB) [2]
  # Bound (number of resolvable phospholipids bound): 3
  extent of phospholipid binding to AmtB: extensive
Aquaporin Z (AQPZ) [3]
  # Bound (number of resolvable phospholipids bound): 3
Ammonia channel (AmtB) [6]
  average stabilisation of AmtB by bound phospholipid (resistance to gas-phase unfolding): not correlated with significant stabilisation

## L-α-phosphatidylethanolamine (E. coli) [PE]
[1]
  # Bound (number of resolvable phospholipids bound): 1
Ammonia channel (AmtB) [2]
  # Bound (number of resolvable phospholipids bound): 2
Aquaporin Z (AQPZ) [3]
  # Bound (number of resolvable phospholipids bound): 1

## L-α-phosphatidylglycerol (E. coli) [PG]
[1]
  # Bound (number of resolvable phospholipids bound): 2
Ammonia channel (AmtB) [2]
  # Bound (number of resolvable phospholipids bound): 4
Ammonia channel (AmtB) [2]; AmtB, moderate collision activation 175 V (FIG. 7a)
  bound phospholipid molecules: one to four
Aquaporin Z (AQPZ) [3]
  # Bound (number of resolvable phospholipids bound): 3
Ammonia channel (AmtB) [6]
  average stabilisation of AmtB by bound phospholipid (resistance to gas-phase unfolding): dramatic increase in stabilisation; also recorded: significant stabilisation
